Experiments:
JAK3 = biological target: T1, JAK3 (Homo sapiens, UniProt P52333); experiment: Kinobeads assay, JAK3; assay type: binding; conditions: mixed Molt4/Ramos cell lysate, dot blot detection
T1 construct: endogenous in cells; host or cells: Mixed Molt4/Ramos lysate (1:2)
T1 sequence (P52333 1-1124): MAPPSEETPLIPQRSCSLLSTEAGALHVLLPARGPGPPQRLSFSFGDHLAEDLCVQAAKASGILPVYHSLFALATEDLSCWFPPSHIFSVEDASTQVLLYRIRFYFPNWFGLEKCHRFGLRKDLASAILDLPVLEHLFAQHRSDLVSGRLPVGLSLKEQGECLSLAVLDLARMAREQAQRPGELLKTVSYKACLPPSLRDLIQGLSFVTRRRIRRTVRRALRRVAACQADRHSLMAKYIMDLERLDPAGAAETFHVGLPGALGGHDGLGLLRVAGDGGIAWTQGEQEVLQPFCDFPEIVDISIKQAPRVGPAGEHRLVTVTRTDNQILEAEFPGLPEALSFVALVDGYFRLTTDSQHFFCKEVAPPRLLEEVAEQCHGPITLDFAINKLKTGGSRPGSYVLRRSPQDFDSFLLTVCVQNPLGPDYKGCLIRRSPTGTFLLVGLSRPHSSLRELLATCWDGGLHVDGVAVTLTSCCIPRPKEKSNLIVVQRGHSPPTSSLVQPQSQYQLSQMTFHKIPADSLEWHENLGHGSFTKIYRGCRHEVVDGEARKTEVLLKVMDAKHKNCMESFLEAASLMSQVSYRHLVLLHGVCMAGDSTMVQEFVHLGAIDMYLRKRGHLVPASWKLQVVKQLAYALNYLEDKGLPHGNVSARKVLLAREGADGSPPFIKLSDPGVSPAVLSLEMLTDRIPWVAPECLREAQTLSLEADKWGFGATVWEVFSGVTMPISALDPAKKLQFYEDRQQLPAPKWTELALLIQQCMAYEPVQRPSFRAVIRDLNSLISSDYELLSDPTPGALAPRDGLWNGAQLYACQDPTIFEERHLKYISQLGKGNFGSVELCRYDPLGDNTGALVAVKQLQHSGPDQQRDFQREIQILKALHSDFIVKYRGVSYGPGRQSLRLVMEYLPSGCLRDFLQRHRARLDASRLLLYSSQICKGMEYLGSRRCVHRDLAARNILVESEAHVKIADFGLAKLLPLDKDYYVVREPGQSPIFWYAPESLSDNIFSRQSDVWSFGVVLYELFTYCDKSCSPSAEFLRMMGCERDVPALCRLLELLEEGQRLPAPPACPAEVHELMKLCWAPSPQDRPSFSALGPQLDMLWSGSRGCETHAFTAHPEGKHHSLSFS
In short: (§1)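 Competition pulldown: compound dilution series incubated 3 h in cold room with immobilized aminopyrido-pyrimidine beads and mixed Molt4/Ramos lysate (1:2, 10 mg/mL protein) in DP buffer pH 7.4 with NP40. Bead-bound JAK2/JAK3 eluted, quantified by antibody dot blot with infrared detection; IC50 from dose-response curves.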

JAK2 = biological target: T2, JAK2 (Homo sapiens, UniProt O60674); experiment: Kinobeads assay, JAK2; assay type: binding; conditions: mixed Molt4/Ramos cell lysate, dot blot detection
T2 construct: endogenous in cells; host or cells: Mixed Molt4/Ramos lysate (1:2)
In short: as §1

T2 sequence (O60674 whole entry): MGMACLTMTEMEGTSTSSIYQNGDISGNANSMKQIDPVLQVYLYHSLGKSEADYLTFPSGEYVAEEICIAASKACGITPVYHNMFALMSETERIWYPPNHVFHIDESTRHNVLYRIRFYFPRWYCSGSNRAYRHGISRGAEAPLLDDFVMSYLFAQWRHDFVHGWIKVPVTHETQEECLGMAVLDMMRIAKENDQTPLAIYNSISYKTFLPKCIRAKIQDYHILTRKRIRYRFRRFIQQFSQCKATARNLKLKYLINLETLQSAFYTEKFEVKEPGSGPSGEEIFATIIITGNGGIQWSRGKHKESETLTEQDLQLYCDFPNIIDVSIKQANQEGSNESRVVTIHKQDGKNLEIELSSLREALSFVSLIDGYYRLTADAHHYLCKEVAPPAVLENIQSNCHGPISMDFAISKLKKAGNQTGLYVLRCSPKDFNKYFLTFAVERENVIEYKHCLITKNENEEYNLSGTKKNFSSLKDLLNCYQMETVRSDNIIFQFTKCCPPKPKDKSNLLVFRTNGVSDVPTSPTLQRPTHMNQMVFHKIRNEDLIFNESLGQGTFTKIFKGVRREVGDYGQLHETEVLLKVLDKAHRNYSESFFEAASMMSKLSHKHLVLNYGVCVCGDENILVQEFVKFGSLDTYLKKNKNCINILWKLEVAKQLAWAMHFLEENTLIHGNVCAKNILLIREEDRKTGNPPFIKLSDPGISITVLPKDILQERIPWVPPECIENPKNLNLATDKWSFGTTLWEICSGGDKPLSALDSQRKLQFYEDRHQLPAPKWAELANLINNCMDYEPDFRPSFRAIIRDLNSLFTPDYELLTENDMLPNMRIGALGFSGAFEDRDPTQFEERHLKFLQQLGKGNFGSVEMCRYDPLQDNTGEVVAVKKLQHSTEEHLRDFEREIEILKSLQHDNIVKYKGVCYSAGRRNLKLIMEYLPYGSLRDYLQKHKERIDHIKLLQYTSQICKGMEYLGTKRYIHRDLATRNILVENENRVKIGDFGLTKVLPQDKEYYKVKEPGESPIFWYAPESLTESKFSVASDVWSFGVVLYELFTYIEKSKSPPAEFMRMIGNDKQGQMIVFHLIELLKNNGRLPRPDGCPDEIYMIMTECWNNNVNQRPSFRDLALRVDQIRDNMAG

| SMILES | IC50 (JAK3) [nM] | IC50 (JAK2) [nM] |
| --- | --- | --- |
| CS(=O)(=O)n1cc(Nc2ncc3cnn(Cc4ccccc4F)c3n2)cn1 [Example 96, 1-(2-Fluorobenzyl)-N-(1-(methylsulfonyl)-1H-pyrazol-4-yl)-1H-pyrazolo[3,4-d]pyrimidin-6-amine] | 100 to 1000 | ≥ 10000 |
| Fc1ccccc1Cn1ncc2cnc(Nc3c[nH]nc3Cl)nc21 [Example 97, N-(3-Chloro-1H-pyrazol-4-yl)-1-(2-fluorobenzyl)-1H-pyrazolo[3,4-d]pyrimidin-6-amine] | 100 to 1000 | ≥ 10000 |
| Cn1cc(Nc2ncc3cnn(Cc4c(F)ccc(F)c4F)c3n2)cn1 [Example 98, N-(1-Methyl-1H-pyrazol-4-yl)-1-(2,3,6-trifluorobenzyl)-1H-pyrazolo[3,4-d]pyrimidin-6-amine] | < 100 | 100 to 1000 |
| Cn1cc(Nc2ncc3cnn(Cc4ccc(F)cc4)c3n2)cn1 [Example 99, 1-(4-Fluorobenzyl)-N-(1-methyl-1H-pyrazol-4-yl)-1H-pyrazolo[3,4-d]pyrimidin-6-amine] | 100 to 1000 | ≥ 10000 |
| CC(C)c1cccc(Cn2ncc3cnc(Nc4cnn(C)c4)nc32)c1 [Example 100, 1-(3-Isopropylbenzyl)-N-(1-methyl-1H-pyrazol-4-yl)-1H-pyrazolo[3,4-d]pyrimidin-6-amine] | 100 to 1000 | ≥ 10000 |
| CC(C)c1ccccc1Cn1ncc2cnc(Nc3cnn(C)c3)nc21 [Example 101, 1-(2-Isopropylbenzyl)-N-(1-methyl-1H-pyrazol-4-yl)-1H-pyrazolo[3,4-d]pyrimidin-6-amine] | 100 to 1000 | 1000 to 10000 |
| COCCOc1ccccc1Cn1ncc2cnc(Nc3cnn(C)c3)nc21 [Example 102, 1-(2-(2-Methoxyethoxy)benzyl)-N-(1-methyl-1H-pyrazol-4-yl)-1H-pyrazolo[3,4-d]pyrimidin-6-amine] | 100 to 1000 | 1000 to 10000 |
| NC(=O)n1cc(Nc2ncc3cnn(Cc4ccccc4F)c3n2)cn1 [Example 103, 4-((1-(2-Fluorobenzyl)-1H-pyrazolo[3,4-d]pyrimidin-6-yl)amino)-1H-pyrazole-1-carboxamide] | 100 to 1000 | 1000 to 10000 |
| COc1cc(F)cc(Cn2ncc3cnc(Nc4cnn(C)c4)nc32)c1 [Example 104, 1-(3-Fluoro-5-methoxybenzyl)-N-(1-methyl-1H-pyrazol-4-yl)-1H-pyrazolo[3,4-d]pyrimidin-6-amine] | < 100 | 100 to 1000 |
| COc1nn(C)cc1Nc1ncc2cnn(Cc3ccccc3)c2n1 [Example 105, 1-Benzyl-N-(3-methoxy-1-methyl-1H-pyrazol-4-yl)-1H-pyrazolo[3,4-d]pyrimidin-6-amine] | < 100 | ≥ 10000 |
| COc1nn(CCO)cc1Nc1ncc2cnn(Cc3ccccc3)c2n1 [Example 106, 2-(4-((1-Benzyl-1H-pyrazolo[3,4-d]pyrimidin-6-yl)amino)-3-methoxy-1H-pyrazol-1-yl)ethanol] | < 100 | 1000 to 10000 |
| Cn1cc(Nc2ncc3cnn(Cc4cccc(C#N)c4F)c3n2)cn1 [Example 107, 2-Fluoro-3-((6-((1-methyl-1H-pyrazol-4-yl)amino)-1H-pyrazolo[3,4-d]pyrimidin-1-yl)methyl)benzonitrile] | < 100 | 1000 to 10000 |
| Cn1cc(Nc2ncc3cnn(Cc4cccc(F)c4C#N)c3n2)cn1 [Example 108, 2-Fluoro-6-((6-((1-methyl-1H-pyrazol-4-yl)amino)-1H-pyrazolo[3,4-d]pyrimidin-1-yl)methyl)benzonitrile] | 100 to 1000 | 1000 to 10000 |
| Cc1c(Nc2ncc3cnn(Cc4ccccc4)c3n2)cnn1C [Example 109, 1-Benzyl-N-(1,5-dimethyl-1H-pyrazol-4-yl)-1H-pyrazolo[3,4-d]pyrimidin-6-amine] | 100 to 1000 | ≥ 10000 |
| Cc1nn(C)cc1Nc1ncc2cnn(Cc3ccccc3)c2n1 [Example 110, 1-Benzyl-N-(1,3-dimethyl-1H-pyrazol-4-yl)-1H-pyrazolo[3,4-d]pyrimidin-6-amine] | 100 to 1000 | ≥ 10000 |
| Cn1cc(Nc2ncc3cnn(Cc4ccccc4C4CC4)c3n2)cn1 [Example 111, 1-(2-Cyclopropylbenzyl)-N-(1-methyl-1H-pyrazol-4-yl)-1H-pyrazolo[3,4-d]pyrimidin-6-amine] | < 100 | 1000 to 10000 |
| CC(C)(O)Cn1cc(Nc2ncc3cnn(Cc4ccccc4F)c3n2)cn1 [Example 112, 1-(4-((1-(2-Fluorobenzyl)-1H-pyrazolo[3,4-d]pyrimidin-6-yl)amino)-1H-pyrazol-1-yl)-2-methylpropan-2-ol] | < 100 | 1000 to 10000 |
| Cc1nn(CCO)cc1Nc1ncc2cnn(Cc3ccccc3)c2n1 [Example 113, 2-(4-((1-Benzyl-1H-pyrazolo[3,4-d]pyrimidin-6-yl)amino)-3-methyl-1H-pyrazol-1-yl)ethanol] | < 100 | 1000 to 10000 |
| Cn1cc(Nc2ncc3cnn(Cc4ccccc4OCc4ccccc4)c3n2)cn1 [Example 114, 1-(2-(Benzyloxy)benzyl)-N-(1-methyl-1H-pyrazol-4-yl)-1H-pyrazolo[3,4-d]pyrimidin-6-amine] | 100 to 1000 | ≥ 10000 |
| Cc1c(F)cccc1Cn1ncc2cnc(Nc3cnn(C)c3)nc21 [Example 115, 1-(3-Fluoro-2-methylbenzyl)-N-(1-methyl-1H-pyrazol-4-yl)-1H-pyrazolo[3,4-d]pyrimidin-6-amine] | < 100 | 1000 to 10000 |
| Cc1ccc(F)cc1Cn1ncc2cnc(Nc3cnn(C)c3)nc21 [Example 116] | < 100 | 100 to 1000 |
| Cc1cccc(F)c1Cn1ncc2cnc(Nc3cnn(C)c3)nc21 [Example 117, 1-(2-Fluoro-6-methylbenzyl)-N-(1-methyl-1H-pyrazol-4-yl)-1H-pyrazolo[3,4-d]pyrimidin-6-amine] | < 100 | 1000 to 10000 |
| FC(F)Cn1cc(Nc2ncc3cnn(Cc4ccccc4)c3n2)cn1 [Example 118, 1-Benzyl-N-(1-(2,2-difluoroethyl)-1H-pyrazol-4-yl)-1H-pyrazolo[3,4-d]pyrimidin-6-amine] | < 100 | 1000 to 10000 |
| COc1nn(CC(F)F)cc1Nc1ncc2cnn(Cc3ccccc3)c2n1 [Example 119, 1-Benzyl-N-(1-(2,2-difluoroethyl)-3-methoxy-1H-pyrazol-4-yl)-1H-pyrazolo[3,4-d]pyrimidin-6-amine] | 100 to 1000 | ≥ 10000 |
| Cc1nn(CC(F)F)cc1Nc1ncc2cnn(Cc3ccccc3)c2n1 [Example 120, 1-Benzyl-N-(1-(2,2-difluoroethyl)-3-methyl-1H-pyrazol-4-yl)-1H-pyrazolo[3,4-d]pyrimidin-6-amine] | 100 to 1000 | ≥ 10000 |
| NS(=O)(=O)c1ccc(-n2ncc3cnc(Nc4cnn(CCO)c4)nc32)cc1 [Example 121, 4-(6-((1-(2-Hydroxyethyl)-1H-pyrazol-4-yl)amino)-1H-pyrazolo[3,4-d]pyrimidin-1-yl)benzenesulfonamide] | < 100 | 100 to 1000 |
| Cn1cc(Nc2ncc3cnn(-c4cccc(S(N)(=O)=O)c4)c3n2)cn1 [Example 122, 3-(6-((1-Methyl-1H-pyrazol-4-yl)amino)-1H-pyrazolo[3,4-d]pyrimidin-1-yl)benzenesulfonamide] | 100 to 1000 | 1000 to 10000 |
| CCN(CC)CCn1cc(Nc2ncc3cnn(Cc4ccccc4F)c3n2)cn1 [Example 123, N-(1-(2-(Diethylamino)ethyl)-1H-pyrazol-4-yl)-1-(2-fluorobenzyl)-1H-pyrazolo[3,4-d]pyrimidin-6-amine] | < 100 | 100 to 1000 |
| Fc1ccccc1Cn1ncc2cnc(Nc3cnn(CCN4CCOCC4)c3)nc21 [Example 124, 1-(2-Fluorobenzyl)-N-(1-(2-morpholinoethyl)-1H-pyrazol-4-yl)-1H-pyrazolo[3,4-d]pyrimidin-6-amine] | < 100 | 100 to 1000 |
| CN(C)CCCn1cc(Nc2ncc3cnn(Cc4ccccc4F)c3n2)cn1 [Example 125, N-(1-(3-(Dimethylamino)propyl)-1H-pyrazol-4-yl)-1-(2-fluorobenzyl)-1H-pyrazolo[3,4-d]pyrimidin-6-amine] | < 100 | 100 to 1000 |
